Patent publication US5420276A, “Analogs of oxetanyl purines and pyrimidines” (Abbott Laboratories, priority 1993, dated 1995)
Values after ≈ are worked out from the molar mass of the structure shown.

Assays:
[1] = test system: HSV-2 (MS); experiment: CPE inhibition assay (MTT), HSV-2 (MS) in Vero cells; assay type: cell-based, herpes simplex virus type 2; conditions: Human alphaherpesvirus 2, inhibited CPE by 50%
Description: (§1) Vero cells were pregrown as monolayers in wells of COSTAR 96-well tissue culture plates using suitable cell culture media. Stock viruses were pretitered according to the method of Reed and Muench (Amer. J. Hyg. 27 493 (1938)) and diluted in cell culture medium to yield 32 CCID50 (cell culture infectious dose, 50%) units per 0.1 mL. Antiviral assays were designed to test six concentrations of each compound, from cytotoxic to noncytotoxic levels, in triplicate against each of the challenge viruses in microtiter plate wells containing cell monolayers. To each of the replicate cell cultures were added 0.1 mL of the test-compound solution and 0.1 mL of virus suspension. Two compounds were evaluated per plate. The following controls were included:
(§2) (1) Cell controls containing cells+medium;
(§3) (2) Untreated, virus-infected cell controls;
(§4) (3) Test-compound cytotoxicity controls containing uninfected, test-compound treated cells;
(§5) (4) Test-compound color controls-test-compound+medium (no cells); and
(§6) (5) Reagent (experiment medium) controls-medium only (no cells).
The covered plates were incubated at 37° C. in a humidified atmosphere containing 2% CO2. When cytopathogenic effect (CPE) in untreated virus control wells reached 100%, 20 μL of 3-(4,5-dimethyl-thiazol-2-yl)-2,5-diphenyl tetrazolium bromide (MTT) (dissolved in PBS at 5 mg/mL) was pipetted into each of the plate wells. The plates were incubated at 37° C. for six hours; then 40 μL of 30% SDS (in 0.02N HCl) was added to each well. After overnight incubation at 37° C., the blue color or the MTT formazan was measured spectrophotometrically at 570 nm. The optical density (OD) value of each culture is a function of the amount of formazan produced which is proportional to the number of viable cells. A computer program was utilized to calculate the percent (CPE) reciprocal of % CPE reduction) of the virus-infected wells and % cell viability of the uninfected test-compound control wells. […]

[2] = test system: HSV-1 (E-377); experiment: CPE inhibition assay (MTT), HSV-1 (E-377) in Vero cells; assay type: cell-based, herpes simplex virus type 1; conditions: Human alphaherpesvirus 1, inhibited CPE by 50%
Description: as §1, §2, §3, §4, §5, §6
The covered plates were incubated at 37° C. in a humidified atmosphere containing 2% CO2. When cytopathogenic effect (CPE) in untreated virus control wells reached 100%, 20 μL of 3-(4,5-dimethyl-thiazol-2-yl)-2,5-diphenyl tetrazolium bromide (MTT) (dissolved in PBS at 5 mg/mL) was pipetted into each of the plate wells. The plates were incubated at 37° C. for six hours; then 40 μL of 30% SDS (in 0.02N HCl) was added to each well. After overnight incubation at 37° C., the blue color or the MTT formazan was measured spectrophotometrically at 570 nm. The optical density (OD) value of each culture is a function of the amount of formazan produced which is proportional to the number of viable cells. A computer program was utilized to calculate the percent (CPE) reciprocal of % CPE reduction) of the virus-infected wells and % cell viability of the uninfected test-compound control wells.
The IC50 value is the minimum test-compound concentration (μg/mL) that inhibited CPE by 50% calculated by using a regression analysis program for semilog curve fitting. The TC25 value is the minimum test-compound concentration (μg/mL) that reduced cell viability by 25%.

[3] = MTT test compound cytotoxicity in human foreskin fibroblasts; assay type: cell-based; conditions: hff cells, read-out: MTT assay (Percent of control)
Description: (§7) For the plaque reduction assay, sixth to twelfth passage human foreskin fibroblasts were seeded in wells of 12-well tissue culture plates and incubated at 37° C. in a humidified atmosphere containing 2% CO2 in air. Subconfluent HFF were rinsed with MEM and exposed to 0.5 ml/well of a suspension of VZV diluted in MEM+2% FBS for 2 hours at 37° C. Following the virus adsorption period, the inocula were removed and the infected cell layers were rinsed with MEM. Triplicate VZV-infected cell culture wells were treated with 1.0 ml of each concentration of test compound (in MEM+2% FBS). Six untreated virus-infected cell cultures and triplicate untreated uninfected cell cultures were fed with 1.0 ml of MEM+2% FBS to serve as controls. Wells containing uninfected HFF were treated with each concentration of test compound to monitor the test compound cytotoxicity. The 12-well plates were incubated at 37° C. in the CO2 incubator. At 48 hours post-virus infection (p.i.), fluids in all plate wells were replaced with fresh test compound and/or culture medium.
The test compound cytotoxicity control cultures were examined microscopically for gross morphologic changes, then treated with MTT and 30% SDS. The blue color of the MTT formazan was measured spectrophotometrically at 570 nm. Test compound cytotoxicity was determined by comparing the absorbance (O.D.) of each test compound control with the mean O.D. of the cell control cultures and expressed as percent of control.

[4] = test system: Varicella-Zoster Virus (VZV) clinical isolate DM625; experiment: VZV plaque reduction assay; assay type: cell-based; conditions: Human alphaherpesvirus 3, 144 h, VZV in HFF; for EC50: minimum concentration required to inhibit plaque formation by 50%, read-out: MIC50
Description: The compounds of the invention were evaluated for selective activity against varicella zoster virus (VCV) utilizing a plaque reduction assay procedure. The challenge virus was a clinical isolate designated DM625, obtained from Dr. Richard Whitley of the University of Alabama Hospitals, Birmingham, Ala. The virus had been passaged and titrated in cultures of human foreskin fibroblasts (HFF).
as §7
Six days p.i., the VZV plaques were counted (unstained, low magnification).The effect of each concentration of test compound on plaque formation was determined by comparing the mean number of plaques in the replicate test compound-treated cultures with the mean plaque counts of the untreated virus control cultures.
The MIC50 value is the minimum concentration of test Compound required to inhibit plaque formation by 50%.

[5] = test system: Vero cells; experiment: MTT cell viability of uninfected test-compound control Vero cells; assay type: cell-based, African green monkey; conditions: reduced cell viability by 25%, HSV-1 (E-377) line
Description: as §1, §4
The covered plates were incubated at 37° C. in a humidified atmosphere containing 2% CO2. When cytopathogenic effect (CPE) in untreated virus control wells reached 100%, 20 μL of 3-(4,5-dimethyl-thiazol-2-yl)-2,5-diphenyl tetrazolium bromide (MTT) (dissolved in PBS at 5 mg/mL) was pipetted into each of the plate wells. The plates were incubated at 37° C. for six hours; then 40 μL of 30% SDS (in 0.02N HCl) was added to each well. After overnight incubation at 37° C., the blue color or the MTT formazan was measured spectrophotometrically at 570 nm. […]

[6] = test system: Herpes Simplex Virus Type 1; experiment: Neutral red dye uptake assay for antiviral activity, HSV-1 in Vero cells; assay type: cell-based; conditions: Human alphaherpesvirus 1, HSV-1, Vero, concentration at which 50% CPE would be observed, read-out: MIC50
Description: (§8) Vero cell monolayers were harvested by trypsinization. The number of viable cells per ml. was determined by staining an aliquot with trypan blue and counting in a hemocytometer. Cell densities were adjusted in growth medium to contain 4×10^5 cells/mi. 96-well sterile tissue culture plates were seeded with 100 μl/well of the adjusted cell suspensions, i.e., 4×10^4 cells/well. Seeded plates were incubated overnight at 37° C. with CO2.
(§9) After overnight incubation, monolayers were approximately confluent. The growth medium was removed and the monolayers in each cell were infected with 100 μl of virus diluted in maintenance medium to produce approximately 90% cytopathogenic effect (CPE) after 2 to 3 days incubation. The virus was allowed to adsorb for 1 hour at 37° C. with 4 to 6% CO2. Controls for cell growth were overlayed with virus-free maintenance medium. The maintenance medium containing residual virus was removed.
(§10) The test compounds were dissolved and/or diluted in maintenance medium to the concentration desired for testing and were added to the wells of the plate. Aliquots (100 μl ) of each concentration were added to wells in replicate (duplicate or triplicate). Controls for virus activity were overlayed with drug-free maintenance medium. Replicate wells containing only maintenance medium served as controls for background absorbance levels.
After incubation, the medium was removed from all the wells. 100 μl of neutral red solution was added to each well and the plate was incubated at 37° C. without CO2 for 2 hours. After the 2 hour incubation, the excess neutral red solution was removed. […]
The neutral red stain taken up by the viable cells was extracted by adding 100 μl/well of acidified methanol, pH 1.0. […] The amount of neutral red stain extracted into the methanol was quantified by determining the absorbance at a wavelength of 540 nm.
The percent CPE in virus controls was determined by the following formula: [formula]
The percent CPE in cells infected with virus and treated with the test compound was determined by the following formula: [formula] […]

[7] = in vitro; assay type: cell-based, African green monkey; conditions: monkey, vero cells
Description: as §8, §9, §10
After incubation, the medium was removed from all the wells. 100 μl of neutral red solution was added to each well and the plate was incubated at 37° C. without CO2 for 2 hours. After the 2 hour incubation, the excess neutral red solution was removed. The plates were washed with 100 μl/well of PBS, pH 7.2 and then the PBS was removed.
The neutral red stain taken up by the viable cells was extracted by adding 100 μl/well of acidified methanol, pH 1.0. (The acidified methanol fixed the cells to the well). The plate was allowed to stand at room temperature for at least 15 minutes to allow for maximum extraction. The amount of neutral red stain extracted into the methanol was quantified by determining the absorbance at a wavelength of 540 nm. […]

IC50 [1] [µg/mL] | IC50 [2] [µg/mL] | EC50 [4] [µg/mL] | SMILES | viability at 1 µM [3] [%] | viability at 3.2 µM [3] [%] | viability at 10 µM [3] [%] | viability at 32 µM [3] [%] | viability at 100 µM [3] [%] | viability at 320 µM [3] [%] | viability at 1000 µM [3] [%] | inhibition at 0.032 µM [4] [%] | inhibition at 0.1 µM [4] [%] | inhibition at 0.32 µM [4] [%] | inhibition at 1 µM [4] [%] | inhibition at 3.2 µM [4] [%] | inhibition at 10 µM [4] [%] | inhibition at 32 µM [4] [%] | inhibition at 100 µM [4] [%] | inhibition at 320 µM [4] [%] | inhibition at 1000 µM [4] [%] | also measured
35.3 (≈ 99.7 µM) | 0.05 (≈ 0.141 µM) | 0.1 (≈ 0.282 µM) | O=c1[nH]c(=O)n([C@@H]2O[C@H](CO)[C@H]2CO)cc1I [Example 42, 1-([2'R, 3'R, 4'S]-3',4'-Bis(hydroxymethyl)-2'-oxetanyl)-5-iodouracil] | 93 | 94 | 80 | 88 | 82 | 79 | 68 | 7 | 2 | 54 | 76 | 98 | 99 | 100 | 100 | 99.6 | 100 | –
141 (≈ 459 µM) | 0.7 (≈ 2.28 µM) | 0.17 (≈ 0.554 µM) | O=c1[nH]c(=O)n([C@@H]2O[C@H](CO)[C@H]2CO)cc1Br [Example 43, 1-([2'R, 3'R, 4'S]-3',4'-Bis(hydroxymethyl)-2'-oxetanyl)-5-bromouracil] | 100 | 93 | 99 | 93 | 100 | 88 | 82 | 1 | 12 | 41 | 75 | 98 | 99 | 99 | 100 | 100 | 100 | viability at 0.032 µM ([3]; 0.032 μM): 100%; viability at 0.1 µM [3]: 100%; viability at 0.32 µM [3]: 96%
– | 0.67 (≈ 1.76 µM) | 0.01 (≈ 0.0263 µM) | O=c1[nH]c(=O)n([C@@H]2O[C@H](CO)[C@H]2CO)cc1C=CI [Example 49, 1([2'R, 3'R, 4'S]-3',4'-Bis(hydroxymethyl)-2'-oxetanyl)-5-(2-iodo-1-vinyl)uracil] | 100 | – | – | – | – | – | – | 97 | 98 | 98 | 99 | – | – | – | – | – | – | TC25 [5]: > 380 µg/mL; viability at 0.1 µM [3]: 100%; viability at 0.32 µM [3]: 100%; inhibition at 0.0032 µM ([4]; 0.0032 μM): 18%; inhibition at 0.01 µM ([4]; 0.01 μM): 49%
6.3 (≈ 24.8 µM) | – | – | C=Cc1cn([C@@H]2O[C@H](CO)[C@H]2CO)c(=O)[nH]c1=O [Example 61, 1-([2'R, 3'R, 4'S]-3',4'-Bis(hydroxymethyl)-2'-oxetanyl)-5-vinyluracil] | – | – | – | – | – | – | – | – | – | – | – | – | – | – | – | – | – | EC50 [6]: 0.02 µg/mL (≈ 0.0787 µM); CC50 [7]: > 1000 µg/mL
